Literature values as cited in patent US9635858B2, “Pesticide and a method of controlling a wide variety of pests” (GOWAN COMERCIO INTERNACIONAL E SERVICOS LIMITADA, priority 2011, dated 2017).

Settings: rats; cited from earlier work

C/C=C(\C)C(=O)O[C@H]1C[C@@H](OC(C)=O)[C@@]2(C(=O)OC)CO[C@H]3[C@@H](O)[C@@](C)([C@]45O[C@@]4(C)[C@H]4C[C@@H]5O[C@@H]5OC=C[C@@]54O)C4[C@]1(CO[C@]4(O)C(=O)OC)[C@@H]32 (stereo partly shown) [Azadirachtin]
LD50: > 3,540 mg/kg
